Laboratory results published in patent US10363305B2, “Anti-ganglioside compound for targeting cancer and generating antibodies” (REALIST PHARMA, INC., priority 2013, dated 2019).

Tests used:
Jurkat cells = experiment: Mixed lymphocyte reaction, 3H-thymidine incorporation, Jurkat stimulators; format: cell-based; conditions: Jurkat cells alone
Protocol: (§1) EL4-GD2^+ cells and control Jurkat cells were treated with 25 μg/ml Mitomycin (Sigma) for 1 hr to arrest their proliferation. After the cells were washed three times with media to remove Mitomycin, they were plated in 96-well plates at 2×10^5 cells/well. Single cell suspensions of splenocytes were obtained from twice immunized (as above) and from vehicle injected control mice. Cells were separated following the protocol of the EASYSEP™ magnet (Stem Cell Tech). […] The T cells were plated at a ratio of 10:1 with Mitomycin-treated EL4 or Jurkat cells. As controls, cultures of T cells alone (no stimulating tumor cells) or T cells treated with ConcanavilinA were used. After 5 days of culture, 0.1μCi/well ^3H-thymidine (Sigma-Aldrich) was added. DNA-incorporated ^3H-thymidine was counted by liquid scintillation, and data are reported as average cpm±sd.

EL4-GD2+ cells = experiment: Mixed lymphocyte reaction, 3H-thymidine incorporation, EL4-GD2+ stimulators; format: cell-based, mouse; conditions: EL4-GD2+ cells alone
Protocol: as §1

Water solubility = format: physicochemical
Protocol: The carbohydrates were synthesized as described (Gilbert et al., 2002, J Biol Chem, 277: 327), by modification of the process for phenylthio-GD2 (Tong et al., 2010, Cehm Biol, 17: 183) in which the thio-phenyl analog originally reported was substituted with an p-aminophenyl-(β-D-lactopyranoside (AP-Lac), from Toronto Research Chemicals), for subsequent conjugation to the dendrimer (see below). AP-GD2 was water soluble (>20 mg/ml), and was purified to >99% purity by size-exclusion (Superdex 30 16 mm×85 cm column, GE Health Care). The measured molecular weight of AP-GD2 was 1218 g/mol and corresponded to expected values. Structures were verified by 1D and 2D NMR spectroscopy and mass spectrometry (EI-MS) (see FIGS. 2A and B).

solubility (Water solubility) [mg/mL] | SMILES | 3H-thymidine incorporation of treated stimulator cells (Jurkat cells) [cpm] | 3H-thymidine incorporation of treated stimulator cells (EL4-GD2+ cells) [cpm]
 | CO[C@@]12[C@H](COC(N)=O)C3=C(C(=O)C(C)=C(N)C3=O)N1C[C@@H]1N[C@@H]12 [Mitomycin] | 107±5 | 188±4
> 20 | CC(=O)NC1C(OC2C(CO)OC(OC3C(CO)OC(Oc4ccc(N)cc4)C(O)C3O)C(O)C2OC2(C(=O)O)CC(O)C(NC(C)=O)C([C@H](O)C(CO)OC3(C(=O)O)CC(O)C(NC(C)=O)C([C@H](O)[C@H](O)CO)O3)O2)OC(CO)C(O)C1O (stereo partly drawn) [AP-GD2] |  | 
